Data set [1] can be described thus: Half life in rat liver microsomes in presence of NADPH by LC/MS/MS metho. The data set is classed as ADME, Microsome. Particulars: for t1/2: microsomes; for half-life: liver microsomes. (Liver microsomes are vesicles of endoplasmic reticulum, rich in cytochrome P450 enzymes.)
A short description of data set [2]: Half life in human liver microsomes in presence of NADPH by LC/MS/MS method. The data set is classed as ADME, Microsome.
Data set [3] in a line: Half life in mouse liver microsomes in presence of NADPH by LC/MS/MS method. The data set is classed as ADME, Microsome. Particulars: for half-life: liver microsomes.
The nature of data set [4]: Cmax in Balb/c mouse at 10 mg/kg, po. The format is ADME, organism-based. On the set-up: dose 10 mg/kg, route oral. As to conditions: in vivo.
Data set [5] in a line: AUC (0 to 24 hrs) in Balb/c mouse at 10 mg/kg, po. The data set is classed as ADME, organism-based. On the set-up: dose 10 mg/kg, time < 24 hr, route oral. As to conditions: in vivo.
Data set [6] in a line: Drug concentration in Balb/c mouse at 10 mg/kg, po measured upto 24 hrs. The data set is classed as ADME, organism-based. Particulars: in vivo, read-out: Drug uptake.

The values below come from ChEMBL document CHEMBL4616702 (ACS Med Chem Lett, 2020).

A word on the half-life: it is the time needed for the level to fall by half in the phase considered. Usually Cmax stands for the peak of the concentration-time curve. As a reminder, the AUC(0-t) is exposure summed from dosing to a finite time, without extrapolation to infinity.

`C[C@H]1C[C@@H](C(=O)N2CC[C@@]3(S(=O)(=O)c4ccc(F)cc4)c4ccc(C(F)(C(F)(F)F)C(F)(F)F)cc4CC[C@@H]23)CCS1(=O)=O` (stereo in doubt; 3): in data set [1], the t1/2 was > 2 h. Further, the half-life in data set [2] and in data set [3] was > 2 h each time.
`C[C@@H]1C[C@H](C(=O)N2CC[C@@]3(S(=O)(=O)c4ccc(F)cc4)c4ccc(C(F)(C(F)(F)F)C(F)(F)F)cc4CC[C@@H]23)CC[C@H]1C(=O)O`: in data set [4], the Cmax was 9 µM. The exposure AUC(0-t) at 24 h in data set [5] was 134 µM·h. Further, the half-life in data set [1] was 1.22 h; in data set [2] it was > 2 h; in data set [3] it was > 2 h. In data set [6], the concentration at 24 h stood at 2.2 µM.
Consider `C[C@H]1C[C@@H](C(=O)N2CC[C@@]3(S(=O)(=O)c4ccc(F)cc4)c4ccc(C(F)(C(F)(F)F)C(F)(F)F)cc4CC[C@@H]23)CCS1(=O)=O` (stereo in doubt; 4), for which the t1/2 was found to be 0.55 h in data set [1] and 1.63 h in data set [3] (microsomes).
Regarding `C[C@@H]1C[C@H](C(=O)O)CC[C@H]1C(=O)N1CC[C@@]2(S(=O)(=O)c3ccc(F)cc3)c3ccc(C(F)(C(F)(F)F)C(F)(F)F)cc3CC[C@@H]12`, the half-life in data set [1], in data set [2] and in data set [3] was > 2 h in each case.
For `O=C(N1CC[C@@]2(S(=O)(=O)c3ccc(F)cc3)c3ccc(C(F)(C(F)(F)F)C(F)(F)F)cc3CC[C@@H]12)C1(O)CCS(=O)(=O)CC1`, the half-life in data set [1], in data set [2] and in data set [3] was > 2 h each time.
On to `O=C(O)[C@H]1CC[C@H](C(=O)N2CC[C@@]3(S(=O)(=O)c4ccc(F)cc4)c4ccc(C(F)(C(F)(F)F)C(F)(F)F)cc4CC[C@@H]23)CC1`, for which the half-life in data set [1], in data set [2] and in data set [3] was > 2 h each time.
For `C[C@H]1C[C@H](C(=O)O)CC[C@H]1C(=O)N1CC[C@@]2(S(=O)(=O)c3cccc(F)c3)c3ccc(C(F)(C(F)(F)F)C(F)(F)F)cc3CC[C@@H]12`, the half-life was 1.78 h in data set [1], > 2 h in data set [2] and > 2 h in data set [3].
Turning to `C[C@H]1C[C@H](C(=O)N2CC[C@@]3(S(=O)(=O)c4cccc(F)c4)c4ccc(C(F)(C(F)(F)F)C(F)(F)F)cc4CC[C@@H]23)CC[C@H]1C(=O)O`, the highest concentration (Cmax) in data set [4] came to 12 µM. In data set [5], this compound showed an AUC(0-t) at 24 h of 72 µM·h. In addition, the half-life in data set [1], in data set [2] and in data set [3] was > 2 h each time. Moreover, the concentration at 24 h in data set [6] amounted to 0.78 µM.
